Test results from paper PMC9228412, “Synthesis and Activity of Triazole-Adenosine Analogs as Protein Arginine Methyltransferase 5 Inhibitors” (Molecules, 2022).
Like-named read-outs stand apart in the source and are kept apart here.

Experiments:
[1] = test system: PRMT5; settings: cited from earlier work
[2] = test system: BCR-ABL-driven CML; design: method as in PMID 27643437; settings: murine model of BCR-ABL-driven CML; cited from earlier work
[3] = target: PRMT1 (Homo sapiens, UniProt Q99873); experiment: scintillation proximity assay (SPA) of PRMT1 methyltransferase activity; format: biochemical; settings: for remaining activity at 10 µM: 0.5 h, remaining activity of the enzyme, single point SPA test, inhibitor 10 μM, read-out: Relative Activity of PRMT1 at 10 μM
Method: (§1) The methyltransferase activities of PRMT5 and PRMT1 in the absence and presence of the synthetic inhibitors were measured by using the scintillation proximity assay (SPA) protocol (Table 1). In the initial test, the inhibitor concentration was set at 10 μM. H4(1–20)K20biotin [Ac-[…](biotin)-NH2] was used as the peptide substrate, at a final concentration of 0.5 μM. ^3H-SAM was used as the methyl donor at 0.5 μM. SAH was used as a control inhibitor. […] Analysis of the biochemical activity results against PRMT5 disclosed a few interesting structure–activity relationship (SAR) trends. […] If the hydroxyl group of 3 was changed to an amine (6), the potency was improved; however, the selectivity was abolished. Generally, compounds that contained positive charges (6, 20, 21, 22, 24) near the triazole ring had further improved potencies.
Inhibitor was dissolved in water to create a 10 mM stock concentration. This was then diluted in buffer (50 mM HEPES pH 8, 10 mM NaCl, 0.5 mM EDTA, 0.5 mM DTT in H2O) to create a series of working concentrations centered around an anticipated IC50. [H]^3-SAM and substrate were diluted together in buffer to working concentrations of […], respectively. To each well in a 96-well plate, 6 μL of the inhibitor solution was added, with negative and positive controls receiving buffer. In total, 6 μL of the [H]^3-SAM/substrate solution was then added to each well. The enzyme was then diluted in buffer to a working concentration of 0.83 μM, and 18 μL was added to each well, with negative controls receiving 18 μL of buffer. The plate was covered, and the reaction was allowed to run for 30 min and was then quenched with the addition of 30 μL of 100% iPrOH followed by 60 μL of 50% iPrOH in H2O. In total, 10 μL of 20 mg/mL streptavidin-coated scintillant beads were added and the plate was read using a MicroBeta (Perkin Elmer, Waltham, MA, USA) plate reader. The CPM counts in the absence of an inhibitor for each data set were considered as 100% activity. In the absence of the enzyme and inhibitor, the CPM counts in each data set were defined as background (0%).

[4] = target: T1, PRMT5 (Homo sapiens, UniProt O14744); experiment: scintillation proximity assay (SPA) of PRMT5 methyltransferase activity; format: biochemical; settings: for remaining activity at 10 µM: 0.5 h, remaining activity of the enzyme, single point SPA test, inhibitor 10 μM, read-out: Relative Activity of PRMT5 at 10 μM
T1 construct: His-tag; made in house; host or cells: Sf9 insect cells (Bac-to-Bac baculovirus)
Method: as §1
Human recombinant His-tag PRMT5 was co-expressed with His-tag MEP50 using the Bac-to-Bac baculovirus expression system (Invitrogen, Life Technologies, Carlsbad, CA, USA) as previously described. Briefly, pFB-LIC-Bse-PRMT5 and pFB-LIC-Bse-MEP50 were heat shock transformed in the DH10Bac E. coli to obtain the recombinant bacmids, and the bacmids were extracted using the PureLink HiPure Plasmid Miniprep Kit (Invitrogen, Thermo Scientific, Carlsbad, CA, USA). The purity and concentration of the plasmid were measured by a Nanodrop. Sf9 cells were cultured in Sf-900 II SFM medium until the cell density reached 1.5 × 10^6 cells/mL and cell viability was more than 95%. Cells were plated in a 6-well tissue culture plate at a density of 4 × 10^5 cells/mL per well. In total, 2 µg of PRMT5 and MEP50 recombinant bacmid were transfected into each well of cells. After 5 h of transfection, the transfection medium was replaced by 2 mL of Sf-900 II SFM + 100 U P/S per well. The medium was collected and centrifuged at 1000 rpm for 5 min to obtain the supernatant P1 viral stock after 7 days of inoculation at 27.5 °C. To obtain a higher titer of viral stock, P1 viral stock was amplified in a 6-well tissue culture plate containing 2 × 10^6 cells per well. In total, 0.1 MOI of P1 virus stock was added into each well. After 7 days of incubation at 27.5 °C, the cell medium was centrifuged at 1000 rpm for 5 min to obtain the P2 viral stock in the supernatant. The Baculovirus plaque assay was performed to determine the viral titer concentration; the target concentration range was 1 × 10^7–1 × 10^8 IFU/mL.
For the expression of PRMT5 and MEP50, Sf9 insect cells were cultured in suspension at 27.5 °C at a speed of 130 rpm in Expression Systems ESF 921 medium with 100 U P/S. In total, 200 mL of Sf9 cell culture was inoculated with PRMT5 and MEP50 P2 viral stocks when the cell density reached 1.5 × 10^6 cells/mL. After incubation for 72 h at 27.5 °C, the cells were harvested and centrifuged. PRMT5 and MEP50 protein were collected in the cell pellet for further purification. Cell pellets were disrupted twice at 100 psi in 25 mL of cell lysis buffer (50 mM Tris pH 8, 300 mM NaCl, 10% glycerol, 0.1% Triton X-100, 1 mM PMSF). Before the Ni-NTA purification, 10 mL of Ni-NTA resin (EMD Millipore, Burlington, MA, USA) was loaded into a 50 mL column and equilibrated with equilibration buffer (50 mM Tris pH 8, 250 mM NaCl, 30 mM Imidazole, 10% glycerol, 1 mM TCEP, 1 mM PMSF). After 60 min of cell lysate centrifugation at 4 °C at 18,000 rpm, the cell lysate supernatant was incubated with the equilibrated nickel resin. The resin was washed with equilibration buffer and protein was eluted with elution buffer (50 mM Tris pH 8, 250 mM NaCl, 300 mM Imidazole, 10% glycerol, 1 mM TCEP, 1 mM PMSF). For the dialysis of protein, elution samples were loaded into a 10,000 MWCO SnakeSkin (Thermo Scientific, Waltham, MA, USA) dialysis bag in the storage buffer (50 mM Tris pH 8, 250 mM NaCl, 10% glycerol, 1 mM TCEP). […]

[5] = test system: 29 other human methyltransferases; design: method as in PMID 25893041; settings: cited from earlier work
[6] = design: method as in PMID 25915199; settings: cited from earlier work
[7] = 0.5 μM H4(1–20)K20biotin, 0.5 μM 3H-SAM
[8] = SPA, concentration-dependent, 0.5 μM H4(1–20)K20biotin, 0.5 μM 3H-SAM, read-out: IC50 PRMT5 (converted)
[9] = SPA, concentration-dependent, read-out: IC50 PRMT1 (converted)

T1 sequence (O14744 whole entry): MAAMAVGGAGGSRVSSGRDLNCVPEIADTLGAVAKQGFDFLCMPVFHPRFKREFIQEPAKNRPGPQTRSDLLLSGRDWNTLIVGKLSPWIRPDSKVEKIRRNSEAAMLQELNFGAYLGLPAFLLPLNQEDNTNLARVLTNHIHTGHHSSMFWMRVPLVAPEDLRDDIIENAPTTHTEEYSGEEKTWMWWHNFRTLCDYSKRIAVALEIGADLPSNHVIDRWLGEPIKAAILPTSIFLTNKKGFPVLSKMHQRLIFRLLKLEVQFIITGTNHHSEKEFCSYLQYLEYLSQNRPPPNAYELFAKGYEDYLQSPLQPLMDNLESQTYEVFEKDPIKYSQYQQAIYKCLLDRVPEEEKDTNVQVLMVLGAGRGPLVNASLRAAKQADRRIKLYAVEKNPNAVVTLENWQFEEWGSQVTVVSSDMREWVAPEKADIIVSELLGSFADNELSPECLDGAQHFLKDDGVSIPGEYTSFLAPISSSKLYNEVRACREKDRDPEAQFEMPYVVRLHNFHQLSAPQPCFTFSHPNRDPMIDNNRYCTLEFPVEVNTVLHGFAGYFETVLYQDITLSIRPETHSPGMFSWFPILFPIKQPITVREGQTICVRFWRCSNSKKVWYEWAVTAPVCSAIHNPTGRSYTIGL
T1 sequence (Q9BQA1 whole entry partner): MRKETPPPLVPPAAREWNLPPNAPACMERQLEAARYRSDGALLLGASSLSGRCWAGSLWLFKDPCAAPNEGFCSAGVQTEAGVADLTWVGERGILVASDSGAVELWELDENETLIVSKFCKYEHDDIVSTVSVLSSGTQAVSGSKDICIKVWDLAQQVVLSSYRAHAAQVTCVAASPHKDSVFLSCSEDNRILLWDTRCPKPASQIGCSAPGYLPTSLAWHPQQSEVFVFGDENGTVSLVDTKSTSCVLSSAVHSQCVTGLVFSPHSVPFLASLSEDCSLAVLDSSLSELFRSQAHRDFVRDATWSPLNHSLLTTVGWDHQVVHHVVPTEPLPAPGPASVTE
Chain of PRMT1 (Q99873 whole entry, species assumed): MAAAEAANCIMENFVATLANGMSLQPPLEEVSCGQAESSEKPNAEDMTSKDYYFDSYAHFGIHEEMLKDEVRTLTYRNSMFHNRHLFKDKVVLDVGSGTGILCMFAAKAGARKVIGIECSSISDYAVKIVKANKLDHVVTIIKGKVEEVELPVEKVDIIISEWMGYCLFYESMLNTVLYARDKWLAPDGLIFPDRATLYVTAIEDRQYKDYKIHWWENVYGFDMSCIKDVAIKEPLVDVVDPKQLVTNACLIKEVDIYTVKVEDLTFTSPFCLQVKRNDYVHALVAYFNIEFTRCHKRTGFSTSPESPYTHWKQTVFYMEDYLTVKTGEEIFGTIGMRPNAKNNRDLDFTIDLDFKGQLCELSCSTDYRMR

Row | SMILES | remaining activity at 10 µM [3] | remaining activity at 10 µM [4, 7] | IC50 [4, 8] | further results
1 | CCn1c2ccccc2c2cc(CNCc3ccccn3)ccc21 [CMP5] | – | – | – | potency [1]: 50 µM
2 | CCn1c2ccccc2c2cc(CNC3CCCc4ccccc43)ccc21 (centres unmarked) [PJ-68] | – | – | – | survival [2]: significant increase in survival
3 | Nc1nc2cc(CC[C@H]3C[C@@H](n4ccc5c(N)ncnc54)[C@H](O)[C@@H]3O)ccc2cc1Br [JNJ-64619178] | – | – | – | IC50 ([1]; bisubstrate inhibitor): 0.00015 µM
4 | CC(=O)N[C@@H](CO)C(=O)NCC(=O)N[C@@H](Cc1cn(C[C@H]2O[C@@H](n3cnc4c(N)ncnc43)[C@H](O)[C@@H]2O)nn1)C(=O)NCC(=O)N[C@@H](CCCCN)C(N)=O [Compound 30] | – | – | – | IC50 [3]: 46.1 µM; IC50 [4]: 45.6 µM
5 | Nc1ncnc2c1ncn2C1OC(Cn2cc(CCC(N)c3ccccc3)nn2)C(O)C1O (centres unmarked) [Compound 10] | 103 ± 5.6% | 71 ± 17% | – | –
6 | CCNC(=O)NCCSC[C@H]1O[C@@H](n2cnc3c(N)ncnc32)[C@H](O)[C@@H]1O [DS-437] | – | – | – | IC50 ([1]; dual PRMT5/PRMT7 inhibitor): 6 µM; activity towards 29 other human methyltransferases [5]: inactive
7 | Nc1ncnc2c1ncn2[C@@H]1O[C@H](Cn2cc(CNCC(=O)Nc3ccccc3F)nn2)[C@@H](O)[C@H]1O [Compound 24, 2-(((1-(((2R,3S,4R,5R)-5-(6-amino-9H-purin-9-yl)-3,4-dihydroxytetrahydrofuran-2-yl)methyl)-1H-1,2,3-triazol-4-yl)methyl)amino)-N-(2-fluorophenyl)acetamide] | 93 ± 1.3% | 40 ± 3.6% | 13.2 µM | –
8 | CC(=O)N[C@@H](CCCNC(=N)N)C(=O)N[C@@H](CCCNC(=N)N)C(=O)N[C@@H](Cc1cn(C[C@H]2O[C@@H](n3cnc4c(N)ncnc43)[C@H](O)[C@@H]2O)nn1)C(=O)N[C@@H](CCCNC(=N)N)C(=O)N[C@@H](CCCNC(=N)N)C(N)=O [Compound 29] | – | – | – | IC50 [3]: > 400 µM; IC50 [4]: 53.7 µM
9 | OC(COc1cccc(CNC2CCCC2)c1)CN1CCc2ccccc2C1 (centres unmarked) [EPZ007345] | – | – | – | in vitro clearance [6]: poor; potency [1]: 0.326 µM
10 | [N-]=[N+]=NC[C@H]1O[C@@H](n2cnc3c(N)ncnc32)[C@H](O)[C@@H]1O [Compound 1, 5′-azido-5′-deoxyadenosine] | 97.5 ± 7.6% | 48 ± 9.7% | 3 µM | IC50 [3, 9]: > 1000 µM
11 | Cc1cccc(NC(=O)CNCc2cn(C[C@H]3O[C@@H](n4cnc5c(N)ncnc54)[C@H](O)[C@@H]3O)nn2)c1 [Compound 21, 2-(((1-(((2R,3S,4R,5R)-5-(6-amino-9H-purin-9-yl)-3,4-dihydroxytetrahydrofuran-2-yl)methyl)-1H-1,2,3-triazol-4-yl)methyl)amino)-N-(m-tolyl)acetamide] | 84 ± 55% | 32 ± 3.3% | – | –
12 | Nc1ncnc2c1ncn2[C@@H]1O[C@H](Cn2cc(CO)nn2)[C@@H](O)[C@H]1O [Compound 3, (2R,3R,4S,5R)-2-(6-amino-9H-purin-9-yl)-5-((4-(hydroxymethyl)-1H-1,2,3-triazol-1-yl)methyl)tetrahydrofuran-3,4-diol] | – | – | 4.4 µM | IC50 [3, 9]: > 1000 µM
13 | C[Si](C)(C)c1cn(C[C@H]2O[C@@H](n3cnc4c(N)ncnc43)[C@H](O)[C@@H]2O)nn1 [Compound 7, (2R,3R,4S,5R)-2-(6-amino-9H-purin-9-yl)-5-((4-(trimethylsilyl)-1H-1,2,3-triazol-1-yl)methyl)tetrahydrofuran-3,4-diol] | – | – | 8.3 µM | IC50 [3, 9]: > 1000 µM
14 | Nc1cc2c(cc1F)OCC(=O)N2Cc1cn(C[C@H]2O[C@@H](n3cnc4c(N)ncnc43)[C@H](O)[C@@H]2O)nn1 [Compound 26] | 100 ± 4.6% | 83 ± 2.5% | – | –
15 | COC(=O)c1ccc(CNCc2cn(C[C@H]3O[C@@H](n4cnc5c(N)ncnc54)[C@H](O)[C@@H]3O)nn2)cc1 [Compound 22, Methyl 4-((((1-(((2R,3S,4R,5R)-5-(6-amino-9H-purin-9-yl)-3,4-dihydroxytetrahydrofuran-2-yl)methyl)-1H-1,2,3-triazol-4-yl)methyl)amino)methyl)benzoate] | 94.2 ± 2.2% | 30 ± 1.7% | 1.3 µM | IC50 [3, 9]: 130 µM
16 | Nc1ncnc2c1ncn2[C@@H]1O[C@H](Cn2cc(CNC(=O)c3ccccc3)nn2)[C@@H](O)[C@H]1O [Compound 15, N-((1-(((2R,3S,4R,5R)-5-(6-amino-9H-purin-9-yl)-3,4-dihydroxytetrahydrofuran-2-yl)methyl)-1H-1,2,3-triazol-4-yl)methyl)benzamide] | 123 ± 4.4% | 94.2 ± 12% | > 40 µM | –
